# Laboratory results taken from patent US10849922B2, “Treatments for retinal disorders” (Cornell University, priority 2011, dated 2020).
# Legend:
# [1] = test system: eyecups from DKO mice; assay: In vitro assay on eyecups of DKO mice; conditions: 2 mM cyclodextrin, 36 hours of culture
# Protocol: FIGS. 17A, 17B. […] The resulting eyecups were in vitro treated with cyclodextrins for 36 hrs before observing them under the microscope (FIG. 17B).
# Eyecups comprise the dark pigmented RPE, choriocapillaries, as well as the grayish sclera. Eyecups were incubated in complete media containing, or not, 2 mM cyclodextrins. After 36 hours of culture, eyecups were flat mounted on glasses and fluorescence was analyzed in the microscope.
# [2] = test system: DKO mice; assay: Fluorescence microscopy of cryosected retinas of DKO mice after subtenon injection; type: in vivo; conditions: single subtenon injection 4000 mg/kg, after 48 hours; for retinal detachment in cryosected retinas: 4000 mg/kg
# Protocol: FIG. 18. Micrographs showing the fluorescence of cryosected retinas of 8-months old WT and DKO mice. The micrographs obtained from (A) a normal mouse, (B) DKO animals not treated with methyl beta-CD, and (C) DKO animals treated with methyl beta-CD. The DKO animals have strong autofluorescence in the RPE layer compared with WT as well as retinal detachment (size shown by arrow). Single subtenon administration of methyl Beta CD (4000 mg/kg) reduced both RPE autofluorescence and retinal detachment.
# The retinas of wild type and DKO animals were analyzed by fluorescence microscopy with the following procedure. Briefly wild type and DKO animals were mock-treated or treated with a single subtenon injection with either vehicle or with methyl beta-cyclodextrin (4000 mg/kg). After 48 hours the eyes were enucleated, fixed, and cryosected. For viewing, 10-micron thick sections were blocked and stained with the red-fluorescently labeled lectin PNA to identify cones in the photoreceptor outer segments (PROS), and blue DAPI nuclear stain to identify the nuclei. In the gray scale micrograph of FIG. 18 (Panel A), the red and blue stains are not distinguishable, so the red fluorescence is labeled PROS and the lighter autofluorescent RPE is also labeled.
# [3] = A2E fluorescence assay for molecules able to encapsulate A2E (AUC ratio); type: binding; conditions: fluorescence spectra changes as a function of added β-CD concentration
# Protocol: In the assay method, at least two solutions containing a lipofuscin bisretinoid lipid are first provided, and the at least two solutions should be substantially the same in all respects, such as in the type of lipofuscin bisretinoid lipid, the concentration of lipofuscin bisretinoid lipid, and the solvent composition. A candidate compound is then added to at least one of the solutions. Fluorescence spectra of the two solutions (i.e., a first solution not containing the candidate compound and a second solution containing the candidate compound) is then measured at an excitation wavelength (e.g., 434 nm or other suitable excitation wavelength) that causes fluorescence of the lipofuscin bisretinoid lipid in the range of 530 nm and 700 nm, or any suitable sub-range therein. An area under the curve (AUC) is then determined for corresponding spectral curves of the first and second solutions within the range of 530 nm and 700 nm or a sub-range therein. […] A ratio of the AUC of the second solution (containing the candidate compound) over the AUC of the first solution (not containing the candidate compound) is then calculated. […]
# The fluorescence spectra were immediately determined (although it was stable for several days) between 530 and 700 nm using a 434 nm excitation wavelength. […] The area under the resulting spectral fluorescence curve was determined with statistical software (Prism4, GraphPad). […]
# [4] = A2E aggregation assay; conditions: A2E 25 μM aqueous solution
# From the text: A2E aggregates are believed to have a role in RPE cell death. This study investigated whether cyclic oligosaccharides dissolve A2E aggregates that form in aqueous phase. The following can be deduced from FIG. 13:
# […] After three days, the liquid in each chamber was harvested and analyzed with a spectrofluorometer to detect the presence of A2E. Only inserts with 3 μm pores allowed A2E to diffuse through.
# The presence of A2E on each side was established by fluorescence scanning between 530-700 nm using 434 nm as the excitation wavelength.
# [5] = Fluorescence comparison of cyclodextrin binding to DHE; conditions: fluorescence spectra changes as a function of added β-CD concentration
# From the text: The binding of A2E and DHE (fluorescent cholesterol analog to cyclodextrins) has been herein investigated by using the assay method described above. […] The determination of affinity constants and stoichiometry for new inclusion complexes can be complex, particularly when the molecular ratio host:guest is bigger than 1. For cholesterol, however, the affinity constants, stoichiometry, molecular structure, and applications of many of its inclusion complexes with cyclic oligosaccharides have been well established. In this context, the side-by-side comparation of A2E and cholesterol complex formation with the same cyclic oligosaccharide serves as an immediate reference to evaluate the quality of the inclusion complex with A2E, as well as help in the determination of its affinity constant, stoichiometry, and structure.
# [6] = A2E oxidation assay; conditions: A2E 5 μM in water, 48 hours, RT in the dark, cyclodextrin 10-100 mM
# Protocol: Solutions containing increasing amounts of Poly Beta-CD (0 mM to 100 mM) were prepared in water, and A2E was added to a final concentration of 5 μM. The solutions were incubated at RT in the dark. 48 hrs later, the UV-visible absorption spectra between 300 and 700 nm was analyzed to determine the oxidative status of A2E. […] These bands can be assigned to the shorter (S) and longer (L) arms of A2E, respectively. Oxidation of a carbon-carbon double bond is accompanied by a hypsochromic shift. A hypsochromic shift in band S corresponds with oxidation on the short arm; a blue-shift in band L reflects oxidation on the long arm; hypsochromic shifts in both peaks indicates oxidation on both side arms (Jang Y. P. et al., J. Biol. Chem., 2005, 280(48):39732-9). The results shown in FIG. 12A indicate that under this aqueous environment A2E oxidizes.
# [7] = cited from earlier work
molecule,measurement,setting,value
Methyl-β-cyclodextrin [Compound 5],fluorescence of eyecups (bisretinoids in RPE),[1],lack of fluorescence
same,RPE autofluorescence (bisretinoids) in cryosected retinas,[2],reduced
same,retinal detachment in cryosected retinas,[2]; listed as methyl Beta CD,reduced
same,retinal detachment in cryosected retinas,[2]; listed as methyl beta-cyclodextrin,reduced detachment
"OC[C@H]1O[C@@H]2O[C@H]3[C@H](O)[C@@H](O)[C@@H](O[C@H]4[C@H](O)[C@@H](O)[C@@H](O[C@H]5[C@H](O)[C@@H](O)[C@@H](O[C@H]6[C@H](O)[C@@H](O)[C@@H](O[C@H]7[C@H](O)[C@@H](O)[C@@H](O[C@H]8[C@H](O)[C@@H](O)[C@@H](O[C@H]1[C@H](O)[C@H]2O)O[C@@H]8CO)O[C@@H]7CO)O[C@@H]6CO)O[C@@H]5CO)O[C@@H]4CO)O[C@@H]3CO [Compound 4, β-cyclodextrin]",formation of inclusion complex with A2E,[3],A2E-β-CD inclusion complexes
same,dissolution of A2E aggregates in aqueous phase (diffusion through 0.2 μm pores),[4],dissolved the A2E aggregates
same,formation of inclusion complex with DHE,[5],formation of DHE-β-CD
same,oxidation of A2E (UV-visible absorption spectra),[6],oxidation of A2E was not observed
Triacetyl-β-cyclodextrin [Compound 12],solubility in water (in words),[7],insoluble
